Results: patent US20130156832A1, “EUDERMIC COMPOSITIONS” (Miso S.r.I., priority 2010, published 2013)

Experiment: Saturation concentration (solubility) of salicylic acid in vehicle A (water)
Assay type: physicochemical

With `O=C(O)c1ccccc1O` [salicylic acid] the “saturation concentration (Cs, SA-A)” value was 2 mg/mL.
